In US8975398B2, “NAMPT inhibitors” (AbbVie Inc., priority 2012, dated 2015):

Key:
[1] = target: NAMPT (human, recombinant, C-terminally His-tagged) (Homo sapiens, UniProt P43490); experiment: Time-Resolved Fluorescence Resonance Energy Transfer (TR-FRET) Binding Assay of NAMPT; conditions: 6.8 nM NAMPT, 200 nM probe, equilibrated 3 hours, absence of substrates
Summary of the method: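 Probe displacement measured by TR-FRET (Ex 337 nm; 520/495 nm ratio) after 3 h room-temperature equilibration of compound with 6.8 nM His-tagged human NAMPT, 1 nM Tb-anti-His antibody and 200 nM Oregon Green 488 nicotinamide-site probe, pH 7.5 HEPES buffer, 2% DMSO. Control-normalized data fit four-parameter logistic for IC50.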

NAMPT = NAMPT (Homo sapiens, UniProt P43490); experiment: Time-Resolved Fluorescence Resonance Energy Transfer (TR-FRET) Binding Assay of NAMPT with PRPP; conditions: 2 nM NAMPT, 2 nM probe, 200 uM PRPP and 2.5 mM ATP, equilibrated 16 hours
Summary of the method: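 Binding measured by TR-FRET after a 16-hour equilibration meant to permit enzymatic compound modification. Substrates present at 200 uM PRPP and 2.5 mM ATP, with 2 nM enzyme, 2 nM probe, 1 nM Tb-anti-His antibody and 2% DMSO final.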

NAMPT (human, recombinant, C-terminally His-tagged), sequence (P43490 whole entry): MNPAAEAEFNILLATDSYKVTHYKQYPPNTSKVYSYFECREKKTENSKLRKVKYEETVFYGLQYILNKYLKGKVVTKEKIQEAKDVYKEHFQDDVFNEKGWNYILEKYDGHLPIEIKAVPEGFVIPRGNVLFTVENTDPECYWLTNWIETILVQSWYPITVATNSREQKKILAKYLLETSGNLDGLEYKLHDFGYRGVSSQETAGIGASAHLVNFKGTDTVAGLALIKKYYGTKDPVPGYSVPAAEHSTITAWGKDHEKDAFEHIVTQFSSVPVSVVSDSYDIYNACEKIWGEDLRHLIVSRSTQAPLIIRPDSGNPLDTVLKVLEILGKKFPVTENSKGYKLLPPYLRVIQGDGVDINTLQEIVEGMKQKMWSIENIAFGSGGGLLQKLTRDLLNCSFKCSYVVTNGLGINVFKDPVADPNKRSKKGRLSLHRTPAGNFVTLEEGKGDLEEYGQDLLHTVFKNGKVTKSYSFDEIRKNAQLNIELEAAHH
NAMPT, sequence (P43490 whole entry): as above

## Cc1ncccc1N1CC(C(=O)Nc2ccc(C3CCN(C(=O)CC4CCCCC4)CC3)cc2)C1 [Example 179, N-{4-[1-(cyclohexylacetyl)piperidin-4-yl]phenyl}-1-(2-methylpyridin-3-yl)azetidine-3-carboxamide]
[1]
  IC50: 99.2 nM
NAMPT
  IC50: 70.7 nM

## O=C(Nc1ccc(OC2CCN(C(=O)c3ccccc3Cl)CC2)cc1)C1CN(c2cccnn2)C1 [Example 211, N-(4-{[1-(2-chlorobenzoyl)piperidin-4-yl]oxy}phenyl)-1-(pyridazin-3-yl)azetidine-3-carboxamide]
[1]
  IC50: 31.9 nM
NAMPT
  IC50: 0.801 nM

## CCOCC(=O)N1CCC(c2ccc(NC(=O)C3CN(c4cccnc4C)C3)cc2)CC1 [Example 191, N-{4-[1-(ethoxyacetyl)piperidin-4-yl]phenyl}-1-(2-methylpyridin-3-yl)azetidine-3-carboxamide]
[1]
  IC50: 743 nM
NAMPT
  IC50: 184 nM

## COCCOCC(=O)N1CCC(c2ccc(NC(=O)C3CN(c4cccnc4C)C3)cc2)CC1 [Example 183, N-(4-{1-[(2-methoxyethoxy)acetyl]piperidin-4-yl}phenyl)-1-(2-methylpyridin-3-yl)azetidine-3-carboxamide]
[1]
  IC50: 1040 nM
NAMPT
  IC50: 185 nM

## O=C(Nc1ccc(OC2CN(C(=O)CC3CCOCC3)C2)cc1)C1CN(c2ccnnc2)C1 [Example 256, 1-(pyridazin-4-yl)-N-(4-{[1-(tetrahydro-2H-pyran-4-ylacetyl)azetidin-3-yl]oxy}phenyl)azetidine-3-carboxamide]
[1]
  IC50: 91.1 nM
NAMPT
  IC50: 38.4 nM

## Cc1ncccc1N1CC(C(=O)Nc2ccc(C3CCN(C(=O)c4ccc(C(F)(F)F)cc4)CC3)cc2)C1 [Example 157, 1-(2-methylpyridin-3-yl)-N-(4-{1-[4-(trifluoromethyl)benzoyl]piperidin-4-yl}phenyl)azetidine-3-carboxamide]
[1]
  IC50: 1070 nM
NAMPT
  IC50: 192 nM

## CC[C@H](C)C(=O)N1CCC(Oc2ccc(C(=O)NC3CN(c4cccnc4)C3)cc2)CC1 [Example 23, 4-({1-[(2S)-2-methylbutanoyl]piperidin-4-yl}oxy)-N-[1-(pyridin-3-yl)azetidin-3-yl]benzamide]
[1]
  IC50: 1950 nM
NAMPT
  IC50: 0.61 nM

## O=C(Nc1ccc(OC2CCN(C(=O)c3ccsc3)CC2)cc1)C1CN(c2cccnc2)C1 [Example 58, 1-(pyridin-3-yl)-N-(4-{[1-(thiophen-3-ylcarbonyl)piperidin-4-yl]oxy}phenyl)azetidine-3-carboxamide]
[1]
  IC50: 59.5 nM
NAMPT
  IC50: 0.683 nM

## Cc1ncccc1N1CC(C(=O)Nc2ccc(C3CCN(C(=O)C(C)C(C)C)CC3)cc2)C1 (centres unmarked) [Example 198, N-{4-[1-(2,3-dimethylbutanoyl)piperidin-4-yl]phenyl}-1-(2-methylpyridin-3-yl)azetidine-3-carboxamide]
[1]
  IC50: 84.5 nM
NAMPT
  IC50: 103 nM

## COCCOCC(=O)N1CCC(Oc2ccc(NC(=O)C3CN(c4cccnc4)C3)cc2)CC1 [Example 48, N-[4-({1-[(2-methoxyethoxy)acetyl]piperidin-4-yl}oxy)phenyl]-1-(pyridin-3-yl)azetidine-3-carboxamide]
[1]
  IC50: 112 nM
NAMPT
  IC50: 0.861 nM

## O=C(Nc1ccc(OC2CCN(C(=O)C(F)(F)c3ccccc3)CC2)cc1)C1CN(c2cccnn2)C1 [Example 215, N-[4-({1-[difluoro(phenyl)acetyl]piperidin-4-yl}oxy)phenyl]-1-(pyridazin-3-yl)azetidine-3-carboxamide]
[1]
  IC50: 68.2 nM
NAMPT
  IC50: 1.14 nM

## Cc1ccc(C(=O)N2CCC(c3ccc(NC(=O)C4CN(c5cccnc5)C4)cc3)CC2)s1 [Example 126, N-(4-{1-[(5-methylthiophen-2-yl)carbonyl]piperidin-4-yl}phenyl)-1-(pyridin-3-yl)azetidine-3-carboxamide]
[1]
  IC50: 14.9 nM
NAMPT
  IC50: 0.359 nM

## C#CCCC(=O)N1CCC(c2ccc(NC(=O)C3CN(c4cccnn4)C3)cc2)CC1 [Example 338, N-{4-[1-(pent-4-ynoyl)piperidin-4-yl]phenyl}-1-(pyridazin-3-yl)azetidine-3-carboxamide]
[1]
  IC50: 27.6 nM
NAMPT
  IC50: 0.52 nM
